For series [1], the system named is human iPSC-derived OPCs. Put plainly: In vitro oligodendrogenesis in human iPSC-derived OPCs (PDGFRa+, MBP+ cells). The format is cell-based. The conditions noted are these: day 25-35 of OPC induction; 20 ng/ml BDNF or 1000 nM LM22A-4; fixed at day 100. From the text: (§1) Cells were fixed at day 100 following induction and the percent of DAPI+ cells expressing the OPC marker PDGFRa was quantified. […] Green=PDGFRa, white=DAPI. Scale bar=10 μm. […] Cells were fixed at day 100 following induction and the percent of DAPI+ cells expressing the mature oligodendrocyte marker MBP was quantified. […] Red=MBP, white=DAPI. Scale bar=10 μm. […] White-dashed circle=lesioned area in the corpus callosum. Scale bar=20 μm. […] FIG. 5K-FIG. 5M show representative confocal images of proliferating OPCs as shown by EdU incorporation into PDGFRa+ cells in mouse OPC cultures treated with vehicle control (FIG. 5K), 50 nM BDNF (FIG. 5L) and 100 nM LM22A-4 (FIG. 5M).
(§2) Thus, to therapeutically manipulate BDNF-TrkB signaling to promote oligodendrogenesis, we tested a small molecule TrkB partial agonist, LM22A-4. […] To determine if LM22A-4 could promote OPC proliferation and differentiation in a manner similar to BDNF, we compared the effects of recombinant BDNF, LM22A-4 or vehicle control in cultures of murine OPCs.

For series [2], the system named is P6-8 mouse OPCs. Put plainly: Oligodendroglial differentiation (CC1+ cells) in murine OPC cultures. Type of series: cell-based. The conditions noted are these: seven-day exposure; BDNF 50 nM, LM22A-4 100 nM daily.
Text: as §1, §2

Series [3] is classed as in vivo, mouse. The conditions noted are these: LM22A-4 50 mg/kg i.p. daily P38-P62, tested P63. The method, then: (§3) A single point indicates the g-ratio for a single axon. Approximately 100 axons were quantified and the mean g-ratio determined for each mouse. P-values (indicated on plots) were determined by a Student's t-test, comparing the mean g-ratio on a per mouse basis between groups. […] At P63, the Novel Object Recognition Test was performed in mice previously exposed to MTX chemotherapy or PBS vehicle control and later treated with LM22A-4 or vehicle control. Percent preference for novel object was measured as the percent time spent with novel object over the total time spent with either object (n=4 mice in each group). Statistical significance was determined by a one-sample t-test, where the average percent preference for the novel object for each group was measured against a hypothetical value of 50% chance an animal would interact with either object. […] Scale bars=2 μm. FIG. 6F-FIG. 6G show myelin microstructure data shown in FIG. 6C are shown as scatterplots of g-ratio as a function of axon caliber. […] LM22A-4 increases myelin sheath thickness in control mice. […] LM22A-4 rescues myelin deficits in mice exposed to juvenile MTX in small caliber axons (<0.5 μm; n=7 mice, p=0.005), medium caliber axons (0.5 μm-1.0 μm; n=7, p=0.006) and large caliber axons (>1.0 μm; n=7 mice; p=0.033) compared to mice exposed to MTX but treated with vehicle control. Data in FIG. 6A-FIG. 6E shown as mean±SEM, ns=p>0.05, * p<0.05, ** p<0.01 *** p<0.001 as determined by Student's t-test.
(§4) The chemotherapy-induced neurological syndrome is characterized by decreased attention and memory function and this is recapitulated in the MTX mouse model used here. To test the hypothesis that BDNF to TrkB signaling could promote myelination and improve cognitive dysfunction after chemotherapy exposure, mice were subjected to the above MTX chemotherapy protocol, then treated systemically with the TrkB partial agonist LM22A-4 (50 mg/kg i.p. daily, P38-P62, FIG. 6A) or vehicle control, and analyzed at 24 hours after the final injection (P63) for changes in myelin microstructure and behavioral performance in the novel object recognition test.
(§5) Myelin microstructure in the cingulum of the corpus callosum was examined by transmission electron microscopy. […] The myelin microstructural effects of LM22A-4 thus mimic activity-regulated changes in myelin microstructure, but would lack the circuit-specificity of the activity-regulated response. To test the influence of LM22A-4 on a behavioral measure of attention and memory function, the novel object recognition test was used. After brief introduction to two identical objects, mice are then exposed to one familiar object as well as a completely novel object after a time delay of 5-minutes. […] Treatment with LM22A-4 from P38-P62 rescues performance in the novel object recognition test in MTX treated mice as these mice spend a significant percentage of their time interacting with the novel object over the familiar object (MTX+vehicle: 47.94%±3.50%, p=0.5968 over 50%; PBS+vehicle: 63.37%±4.72%, p=0.0219 over 50%; MTX+LM22A-4: 62.81%±3.31%, p=0.0305 over 50%; PBS+LM22A-4: 68.93%±6.34%, p=0.0317 over 50%; FIG. 6E).

Series [4] concerns myelinated axons in the cingulum of the corpus callosum. The format is in vivo, mouse. The conditions noted are these: for g-ratio: LM22A-4 50 mg/kg i.p. daily P38-P62, analysed P63. On the procedure:
as §3, §4, §5

Series [5] concerns P6-8 mouse OPCs. Put plainly: OPC proliferation index (EdU+/PDGFRa+) in cultures of murine OPCs. The conditions noted are these: 24-hour exposure; 0-1000 nM concentration range. Type of series: cell-based.
Text: as §1, §2

The target of series [6] is TrkB receptor (Homo sapiens, UniProt Q16620). Particulars: previously shown; cited from earlier work.
Sequence of TrkB receptor (Q16620 32-822): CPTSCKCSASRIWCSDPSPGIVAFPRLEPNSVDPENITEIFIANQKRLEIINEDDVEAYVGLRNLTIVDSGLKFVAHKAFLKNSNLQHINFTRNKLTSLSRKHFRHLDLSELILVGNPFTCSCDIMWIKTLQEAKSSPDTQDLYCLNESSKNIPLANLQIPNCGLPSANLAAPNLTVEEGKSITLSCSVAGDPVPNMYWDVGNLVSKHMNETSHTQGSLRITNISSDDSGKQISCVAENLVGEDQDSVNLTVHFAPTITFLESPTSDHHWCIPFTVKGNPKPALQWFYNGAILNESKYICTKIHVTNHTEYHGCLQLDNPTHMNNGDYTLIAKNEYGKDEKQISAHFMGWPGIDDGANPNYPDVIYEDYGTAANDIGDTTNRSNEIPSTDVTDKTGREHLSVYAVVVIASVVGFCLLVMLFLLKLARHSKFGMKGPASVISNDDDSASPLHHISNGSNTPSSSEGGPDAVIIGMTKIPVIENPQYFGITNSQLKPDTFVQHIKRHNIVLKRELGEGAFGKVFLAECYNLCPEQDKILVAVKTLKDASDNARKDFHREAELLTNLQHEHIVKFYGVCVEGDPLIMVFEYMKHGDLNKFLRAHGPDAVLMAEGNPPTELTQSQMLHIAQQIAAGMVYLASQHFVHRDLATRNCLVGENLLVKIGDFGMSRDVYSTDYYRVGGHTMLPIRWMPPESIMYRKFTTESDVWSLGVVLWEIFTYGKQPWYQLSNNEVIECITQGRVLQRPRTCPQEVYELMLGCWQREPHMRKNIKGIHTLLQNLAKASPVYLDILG
The subject of series [7] is lysolecithin-induced demyelination in the corpus callosum. Put plainly: Lysolecithin demyelination model, OPC proliferation and oligodendrogenesis in corpus callosum lesion. Type of series: in vivo, mouse.
Text: as §1
To investigate the effects of LM22A-4 treatment on OPC proliferation and oligodendrogenesis in vivo, we next examined mice treated with either LM22A-4 or vehicle control in a well-established demyelination model. Stereotaxic injection of lysolecithin into white matter regions causes a focal, toxic, demyelinating injury; this leads to microglial activation and demyelination, followed by OPC proliferation, recruitment and migration into the lesion area. […]

Series [8] concerns OPCs in the corpus callosum. Particulars: MTX at P21, 28, 35; one month (P63) and 6 months (P203) after cessation; cited from earlier work.
For series [9], the system named is BDNF protein. Particulars: mouse, in vivo.
The conditions of series [10]: BDNF protein; cited from earlier work.

Read-outs that look alike come from different tables or passages of the source.

As to `O=C(NCCO)c1cc(C(=O)NCCO)cc(C(=O)NCCO)c1` [LM22A-4, N,N′,N″-tris(2-hydroxyethyl)-1,3,5-benzenetricarboxamide], the “in vitro oligodendrogenesis in human oligodendroglial lineage cells” value in [1] is given as “similarly promote in vitro oligodendrogenesis”. For the same molecule, in series [2], the “oligodendroglial differentiation, cells expressing CC1 relative to vehicle control” value is on record as “similarly promoted oligodendroglial differentiation”. Also, the results for the “percent preference for novel object” value in series [3] (MTX-exposed mice) and in series [3] (PBS-exposed mice) were 62.81%±3.31% and 68.93%±6.34%, respectively. Moreover, the g-ratio was 0.733±0.017 in series [4] (MTX-exposed mice (100 mg/kg i.p. P21, 28, 35)) and 0.713±0.010 in series [4] (PBS-exposed mice). In series [4] (MTX-treated mice, small (<0.5 μm), medium (0.5-1.0 μm), large (>1.0 μm) caliber axons), the “myelin thickness by axon caliber” value is “increased myelin thickness in small, medium and large caliber axons”. Further, the “proliferative index of OPCs (fraction of total cells in S phase, co-localization of PDGFRa with EdU)” value in series [5] was “similarly increased the proliferative index of OPCs in the low nanomolar range and in a dose-dependent manner”. In addition, the TrkB receptor activation entry in series [6] is “activate the TrkB receptor specifically”. The “density of EdU+/PDGFRa+ proliferating OPCs in lesioned area” value in series [7] (50 mg/kg i.p. for one week from day 7 after lysolecithin injection) is given as 1132±67.1 cells/mm3. Further, the “density of EdU+/CC1+ newly generated mature oligodendrocytes in lesioned area” value in [7] (50 mg/kg, day 7 to 21 following lysolecithin injury) is recorded as 764.8±141.6 cells/mm3.

For the molecule `CN(Cc1cnc2nc(N)nc(N)c2n1)c1ccc(C(=O)N[C@@H](CCC(=O)O)C(=O)O)cc1` [MTX, methotrexate], the “OPCs in the corpus callosum after MTX exposure” value in [8] was “lasting reduction of OPCs in the corpus callosum”. In series [9], the corpus callosum BDNF protein levels turned out to be 5350 ± 1740 pg/mL and the “decrease in corpus callosum BDNF protein levels compared to PBS vehicle controls” value is “more than three-fold decrease”.

“BDNF: brain-derived neurotrophic factor, recombinant protein, ligand of TrkB”: the “in vitro oligodendrogenesis in human oligodendroglial lineage cells” value in [1] was “similarly promote in vitro oligodendrogenesis”. Besides, the “oligodendroglial differentiation, cells expressing CC1 relative to vehicle control” value in series [2] was “similarly promoted oligodendroglial differentiation”. Also, in series [5], the “proliferative index of OPCs (fraction of total cells in S phase, co-localization of PDGFRa with EdU)” value is given as “increased the proliferative index”.

B1: BDNF: brain-derived neurotrophic factor, recombinant protein, ligand of TrkB (protein, UniProt P23560 19-247, looked up)
Neurotrophic factor BDNF …: APMKEANIRGQGGLAYPGVRTHGTLESVNGPKAGSRGLTSLADTFEHVIEELLDEDQKVRPNEENNKDADLYTSRVMLSSQVPLEPPLLFLLEEYKNYLDAANMSMRVRRHSDPARRGELSVCDSISEWVTAADKKTAVDMSGGTVTVLEKVPVSKGQLKQYFYETKCNPMGYTKEGCRGIDKRHWNSQCRTTQSYVRALTMDSKKRIGWRFIRIDTSCVCTLTIKRGR
In the case of B1, in series [10], the blood-brain-barrier penetration result was “poor blood-brain-barrier penetration” and the plasma half-life entry is listed as “short plasma half-life”.
